According to patent US10722528B2, “Compositions and methods for inhibiting metastasis” (Augusta University Research Institute, Inc., priority 2018, dated 2020):

Columns and labels:
[1] = test system: MDSC-related genes in bone marrow cells; assay: Expression of MDSC-related genes in bone marrow cells treated with GCSF and compound; format: cell-based, mouse
Text: FIG. 13A is a bar graph showing Ly6c+Ly6g+CD11b+gMDSCs differentiation in vitro in bone marrow cells treated with GCSF and the lead NCI compounds identified by computational screen against S100A8/A9 (calprotectin). FIGS. 13B-13K are representative flow cytometry plots showing the expression of CD11b and Ly6C in bone marrow cells treated with compounds 4, 10, 13, and 15. FIGS. 13L-13R are bar graphs showing the expression of MDSC-related genes (S100A8, FIG. 13L; S100A9, FIG. 13M; GCSF, FIG. 13N; IL1A, FIG. 13O; NOS2, FIG. 13P; CYB1, FIG. 13Q; and IL4R, FIG. 13R) in bone marrow cells treated with GCSF (black bars), GCSF+#4 (dark gray bars), GCSF+#10 (light gray bars), or untreated (white bars).
P values<0.05 were considered statistically significant.

4T1 tumor = assay: Metastatic 4T1-injected mice treated with drug #10 (bioluminescence imaging, MDSC infiltration); format: in vivo, mouse
Text: FIG. 14A-14D are bioluminescence images of metastatic 4T1-injected mice untreated or treated with drug #10. FIG. 14E-14H are bar graphs showing the extent of mMDSC infiltration in the primary tumor (FIG. 14H) and the BM (FIG. 14E), spleen (FIG. 14F), and lung (FIG. 14G) of metastatic 4T1-injected mice untreated (black bars) or treated with drug #10 (gray bars). FIG. 14I-14L are bar graphs showing the extent of gMDSC infiltration in the primary tumor (FIG. 14L) and the BM (FIG. 14I), spleen (FIG. 14J), and lung (FIG. 14K) of metastatic 4T1-injected mice untreated (black bars) or treated with drug #10 (gray bars).
Luciferase expressing 4T1 or EMT6 murine breast cancer cells (50,000 cells per mice) were orthotopically implanted into the fat pads of 5-week-old BALB/c mice. (AT-3 cells in C57BL/J6 mice) and these mice were imaged utilizing the Caliper IVIS imaging systems. To analyse MDSCs, tumor-bearing mice were sacrificed every week and single-cell suspensions were prepared from bone marrows, spleens, lungs and tumor tissues. Bone marrow cells were obtained by flushing bones with PBS using a 28G 1/2 syringe. […]
These cells were labeled with fluorescence-conjugated Ly6C (#128015-dilution 1/400), Ly6G (#127605-dilution 1/100) and CD11b (#101208-Dilution 1/200) antibodies (Biolegend) and analyzed on a FACS canto flow cytometer (BD Biosciences).

[2] = test system: gMDSC differentiation in bone marrow cells; assay: In vitro screening of gMDSC differentiation in bone marrow cells (GM-CSF/G-CSF, flow cytometry); format: cell-based, mouse; conditions: GM-CSF, 3 days, flow cytometry (Ly6c+Ly6g+CD11b+)
Protocol: BALB/c mice were euthanized by CO2 asphyxiation. The femur bones were carefully resected under sterile conditions, cleaned to remove the attached muscle/tissue, and cleaned with 70% ethanol. The bones were then transferred on to a sterile Petri dish with culture medium Roswell Park Memorial Institute (RPMI)-1640. Both ends of femurs were carefully trimmed using sterile, sharp scissors to expose the interior marrow shaft. The contents of marrow were flushed with 2-4 ml of culture medium (RPMI-1640 supplemented with 10% FBS) using 1-ml insulin syringe with a 29G×½ needle. Later, the bone marrow was flushed out onto a 70 μm nylon cell strainer placed in a 50 ml Falcon conical tube (The bones should appear white once all the marrow has been expelled out completely). The collected BM cell suspension was further diluted with 20 ml of phosphate buffer saline (PBS), and the cell suspension was centrifuged at 1,000 rpm […]. The supernatant and the cell pellet were collected using red blood cell (RBC) lysis buffer and incubated for 5 minutes. 5-10 mL of PBS was added, and the solution was centrifuged at 1,000 rpm for 5 minutes. The supernatant was discarded and the cell pellet was washed with PBS, and re-centrifuged at 1,000 rpm for 5 minutes. The cells were re-suspended with RPMI medium containing 10% FBS and used for assays or culture.
Computational screening of certain select NCI chemical library was performed again the crystal structure of calprotectin. 40 lead compounds were identified with potential to bind to calprotectin and suppress gMDSC differentiation. In vitro screening using the 40 lead compounds was performed. Bone marrow cells were counted using hemocytometer or Beckman Z2 coulter counter and suspended in culture medium (RPMI 1640+10% FBS+1% penicillin/streptomycin) to achieve a final cell density of 2×10^6 BM cells/well. T20 ng/mL of recombinant mouse GM-CSF (Granulocyte Macrophage—Colony Stimulating Factor Protein) was added followed by 50 ng/mL G-CSF or individual selected drug. […]

EMT6-Luc tumor = assay: In vivo gMDSC induction: EMT6-Luc tumor model in BALB/c mice injected with recombinant protein; set-up: species or system mouse; conditions: for tumor cell killing activity of T cells from treated mice (annexin V+ cells): compared to control treated mice; for levels of caspase 3 mediated apoptosis: treated mice versus saline
Protocol: (§1) In vivo gMDSC induction: EMT6 tumor model was selected as platform to examine the role of the proteins in regulation gMDSCs and the resultant metastatic cascade. EMT6-Luc cells were implanted into the mammary fat pads of BALB/c mice (purchased from Charles Rivers at NCI). The mice were then injected (via tail vein) either with saline (control), recombinant S100A9 or Calprotectin (100 ng/mouse) every alternate day for three weeks.
as §1, with “EMT6” for “In vivo gMDSC induction: EMT6”

EMT6 cells = test system: EMT6 cells
Protocol: (§2) FIGS. 5A-5D are bar graphs showing expression of IL6 (FIG. 5A), IL1A (FIG. 5B), TGFB (FIG. 5C), and Vimentin (FIG. 5D) in EMT6 cells (white bars), EMT6 cells+0.5 mM DPTA (gray bars), and EMT6 cells+2.5 mM DPTA (black bars). FIG. 5E-5H are bar graphs showing expression of IL6 (FIG. 5E), IL1A (FIG. 5F), TGFB (FIG. 5G), and Vimentin (FIG. 5H) in EMT6 cells (white bars), EMT6 cells+mMDSCs (gray bars), and EMT6 cells+mMDSCs/1400W (black bar). FIG. 5I is a representative Western blot showing pSTAT3, STAT3, pSTAT1, STAT1, Vimentin, Twist, and actin expression in untreated EMT6 cell, or EMT6 cells treated with 0.5 mM or 2.5 mM DPTA, mMDSCs, or mMDSCs+1400W.
(§3) For RT-PCR analyses, KiCqStart SYBR Green predesigned primers (Sigma) were used for the following genes: […]
(§4) The relative fold change was measured by 2-ΔΔCt formula compared to the control cells. Means and differences of the means with 95% confidence intervals were obtained using GraphPad Prism (GraphPad Software Inc.). Two-tailed Student's t-test was used for unpaired analysis comparing average expression between conditions. P values<0.05 were considered statistically significant.

[3] = test system: EMT6 cells co-cultured with mMDSCs; assay: EMT6 cells co-cultured with mMDSCs and NOS2 inhibitor 1400W (qPCR, Western blot); format: cell-based, mouse
Protocol: as §2, §3, §4

T cell proliferation = assay: In vitro suppression: bone marrow cells treated with recombinant protein plus GM-CSF, then co-incubated with activated CFSE labeled T cells; format: cell-based, mouse; conditions: 7 days, then 3 days with activated CFSE labeled T cells
Protocol: (§5) In vitro suppression: Multigrams of recombinant Calprotectin, S100A8 and S100A9 proteins were isolated, purified and confirmed for their activity with commercially available proteins. Bone marrow cells were treated with recombinant S100A8 (A8), S100A(9) or Calprotectin (CALP) in presence of GM-CSF (Granulocyte Macrophage-Colony Stimulating Factor Protein) in vitro for 7 days for gMDSC differentiation. The cells were then co-mixed and incubated 3 more days with activated CFSE labeled T cells.
as §5, with “Multigrams” for “In vitro suppression: Multigrams”, “recombinant S10A8” for “recombinant S100A8”, “(Granulocyte Macrophage—Colony” for “(Granulocyte Macrophage-Colony”

[4] = 100 ng/mouse via tail vein every alternate day for three weeks

**Q.** How did the “expression of MDSC-related genes S100A8, S100S9, GCSF, IL1A, NOS2, CYBB1, and IL4R” value [1] turn out when CC12CCC3C(CCC4Cc5[nH]c6ccccc6c5CC43C)C1CCC2O (stereo not shown) [compound 10, 12a,14a-dimethyl-1,2,3,3a,3b,4,5,5a,6,7,12,12a,12b,13,14,14a-hexadecahydrocyclopenta[5,6]naphtho[2,1-b]carbazol-1-ol] was run?
**A.** reduced the expression

**Q.** And the “tumor growth and metastasis” value (4T1 tumor; bioluminescence images)?
**A.** suppresses tumor growth and metastasis

**Q.** What about the “gMDSC infiltration into the tumor and distant organ sites” value (4T1 tumor; primary tumor, BM, spleen, lung) of the same molecule?
**A.** reduce gMDSC infiltration

**Q.** And the “inhibition of gMDSC differentiation” value [2]?
**A.** significant inhibition of gMDSC differentiation

**Q.** With “S100A9: recombinant S100A9 protein, subunit of calprotectin” as the molecule, how does the “tumor cell killing activity of T cells from treated mice (annexin V+ cells)” value (EMT6-Luc tumor) read?
**A.** moderate activity

**Q.** And the “levels of caspase 3 mediated apoptosis” value (EMT6-Luc tumor)?
**A.** reduced

**Q.** How did the “expression of IL1A, IL6, TGFB1 and VIM (qPCR)” value (EMT6 cells; 0.5 mM and 2.5 mM DPTA) turn out when NCCCN(CCCN)/[N+]([O-])=N/O [DPTA] was run?
**A.** induced the expressions of indicated genes

**Q.** And the “activation of pStat1 and pStat3 signaling pathways and protein levels of EMT markers vimentin and twist (Western blot)” value (EMT6 cells; 0.5 mM or 2.5 mM DPTA)?
**A.** induced the activation of pStat1 and pStat3 signaling pathways and protein levels of EMT markers

**Q.** With CC(=N)NCc1cccc(CN)c1 [1400 W] as the molecule, how does the “activation of pStat1 and pStat3 pathways and EMT markers vimentin and twist (Western blot)” value [3] read?
**A.** suppressed the activation of the latter pathways and EMT markers

**Q.** What about the “mMDSC-induced transcription of IL1A, IL6, TGFB1 and VIM (qPCR)” value [3] of the same molecule?
**A.** suppress the mMDSC-induced transcription of these genes

**Q.** How did the “suppression of T cell proliferation by protein treated gMDSCs” value (T cell proliferation) turn out when “Calprotectin: recombinant complex of the mammalian proteins S100A8 and S100A9” was run?
**A.** suppressed T cell proliferation more efficiently compared to S100A9

**Q.** And the “CD8+ T cells” value (EMT6-Luc tumor; [4])?
**A.** increase in CD8+ T cells

**Q.** What about the “primary tumor growth and spontaneous metastasis” value (EMT6-Luc tumor; [4]) of the same molecule?
**A.** enhanced primary tumor growth and spontaneous metastasis to the lungs and liver

**Q.** What about the “tumor cell killing activity of T cells from treated mice (annexin V+ cells)” value (EMT6-Luc tumor) of the same molecule?
**A.** significantly suppressed the tumor cell killing activity

**Q.** What about the “levels of caspase 3 mediated apoptosis” value (EMT6-Luc tumor) of the same molecule?
**A.** reduced

**Q.** O=[N+]([O-])C1C(c2ccccc2)C12c1ccccc1-c1ccccc12 (stereo not shown) [compound 27] was tested. Which “inhibition of gMDSC differentiation” value [2] did it give?
**A.** significant inhibition of gMDSC differentiation

**Q.** How did the “expression of MDSC-related genes S100A8, S100S9, GCSF, IL1A, NOS2, CYBB1, and IL4R” value [1] turn out when O=C1c2cccc(Oc3ccccc3)c2C(=O)c2cccc(Oc3ccccc3)c21 [compound 4, 1,5-diphenoxyanthracen-9-10-dione] was run?
**A.** reduced the expression

**Q.** What about the “inhibition of gMDSC differentiation” value [2] of the same molecule?
**A.** significant inhibition of gMDSC differentiation

B1: S100A8: recombinant S100A8 protein, subunit of calprotectin (protein, UniProt P05109 1-93, looked up)
Protein S100-A8: MLTELEKALNSIIDVYHKYSLIKGNFHAVYRDDLKKLLETECPQYIRKKGADVWFKELDINTDGAVNFQEFLILVIKMGVAAHKKSHEESHKE
**Q.** Which “suppression of T cell proliferation by protein treated gMDSCs” value (T cell proliferation) does the source give for B1 here?
**A.** no significant effect
